{"source": "patent US12685733B2", "about": "“Indole molecules and use thereof in the inhibition of DNA polymerases” (BioVentures, LLC, priority 2019, dated 2026)", "key": {"hpol β": {"target": "T1, hpol β (Homo sapiens, UniProt P06746)", "T1 construct": "gift of Dr. Samuel Wilson (NIEHS)", "test": "Fluorescence-based polymerase assay, other pol families", "assay_type": "biochemical", "details": "10 μM; 1 nM hpol β (X-family)"}, "hpol η": {"target": "T2, hpol η (Homo sapiens, UniProt Q9Y253)", "T2 construct": "hpol η (residues 1-437); made in house", "T2 sequence (Q9Y253 1-437)": "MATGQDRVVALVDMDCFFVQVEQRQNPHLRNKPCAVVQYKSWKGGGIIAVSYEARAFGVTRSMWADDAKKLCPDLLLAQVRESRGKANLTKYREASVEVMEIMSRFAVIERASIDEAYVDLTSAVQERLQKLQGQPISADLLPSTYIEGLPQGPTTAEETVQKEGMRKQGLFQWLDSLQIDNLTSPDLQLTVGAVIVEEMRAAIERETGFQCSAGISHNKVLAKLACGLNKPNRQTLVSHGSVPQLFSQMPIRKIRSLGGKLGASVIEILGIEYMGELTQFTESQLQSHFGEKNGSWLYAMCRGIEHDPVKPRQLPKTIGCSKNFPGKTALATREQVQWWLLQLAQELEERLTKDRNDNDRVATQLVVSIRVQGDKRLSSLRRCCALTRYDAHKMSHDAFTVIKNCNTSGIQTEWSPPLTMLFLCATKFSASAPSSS", "test": "Fluorescence-based DNA polymerase activity assay", "assay_type": "biochemical", "details": "for pIC50: 95% confidence interval in parentheses, read-out: IC50 for inhibition of hpol η", "excerpt": "The impact of IAG-10 on the affinity of hpol κ for DNA was an important insight and one that had not been observed previously with MK-886. It was reasoned that decreasing the concentration of either enzyme or DNA, might affect the IC50 value by shifting the equilibrium away from the formation of binary hpol c: DNA complex and toward the enzyme-inhibitor complex. To investigate this idea, the concentration of hpol and p/t-DNA was varied in the reaction mixture and measured the IC50 value for IAG-10. Decreasing the enzyme and DNA in solution led to a dramatic decrease in the IC50 for IAG-10 against hpol κ (FIG. 4A). […] Then, similar experiments were performed with hpol η by varying the concentration of enzyme and DNA in the reaction mixture an determining the IC50 value for IAG-10-mediated inhibition."}, "Tb pol I": {"target": "T3, Tb pol I (Mycobacterium tuberculosis, UniProt P9WNU5)", "T3 construct": "made in house", "test": "Fluorescence-based polymerase assay, other pol families", "assay_type": "biochemical", "details": "10 μM; 10 nM Tb pol I (A-family)"}, "T98G spheroids": {"tested_on": "T98G spheroids", "test": "Spheroid growth rate assay", "assay_type": "cell-based", "details": "50 nM or 500 nM, with or without TMZ, 12 days", "description": "Cell, spheroid and organoid culture. Grade IV glioma cells (T98G) were obtained from the American Type Culture Collection (ATCC). MCF7 cells were a kind gift from Dr. Timothy Chambers (UAMS). The POLKKO T98G cell lines were generated using CRISPR-Cas9 and validated by immunoblotting (data not shown). For normal culture, these cells were grown in minimum essential media (MEM) containing 10% fetal bovine serum (FBS), 1% (v/v) antibiotic/[…] and incubated at 37° C. in 5% CO2.\nFor spheroid culture, 24 h prior to plating cells, dishes were coated in 1× poly-HEMA (0.6 g poly-2-hydroxyethyl methacrylate into 50 mL 95% EtOH) under sterile conditions and allowed to dry overnight. Coated dishes were hydrated in 1×PBS for 20 min prior to plating. Spheroids were cultured in NeuroCult NS-A basal medium containing NeuroCult NS-A proliferation supplement, 20 ng/mL human recombinant epidermal growth factor (EGF), 10 ng/mL human recombinant basic fibroblast growth factor (bFGF), and 0.0002% heparin (referred to as NS-A complete medium). […]\nSpheroid growth rate assay. […] Spheroids with a diameter of 50 µm or larger were counted as true spheroids and an average size was determined for each well. Changes in average size for each well over the growth time was recorded and used to generate the growth rate. […]"}, "[1]": {"tested_on": "hpol κ-deficient HAP-1 cells", "test": "supF mutagenesis assay", "details": "1 μM IAG-10, 24 h", "procedure": "HAP-1 hpol κ-proficient and hpol κ-deficient cells were cultured in 10 cm dishes to ~80% confluency in Iscove's modified Dulbecco's medium (Invitrogen) containing 10% (v/v) FBS supplemented with Ix antibiotic antimycotic solution (Sigma). They were transfected with unmodified (control) and methylmethanesulfonate (MMS)-modified pSP189 plasmid harboring the supF gene either in the absence or presence of 1 μM IAG-10. For plasmid modification with MMS, the pSP189 plasmid was first incubated with 100 mM MMS in 10 mM HEPES buffer (pH 7.5) containing 50 mM KCl, 5 mM MgCl2, and 1 mM dithiothreitol at RT for 1 h. The MMS-modified plasmid was then purified by ethanol precipitation and used in subsequent transfections, similar to the unmodified plasmid. […] The recovered plasmids (75-100 ng) were then transformed into E. coli MBM7070 strain by electroporation, and the transformed bacterial cells were plated on LB-agar plates containing 100 μg/mL ampicillin, 1 mM isopropyl-I-thio-fi-Dgalactopyranoside (IPTG) and 100 μg/mL X-gaL The resulting blue (nonmutated) and white (mutated) colonies were counted. The mutation frequency was calculated as the ratio of mutant (white) colonies to total (blue+white) colonies. At least 10 000 colonies were counted for each condition, and the results reported represent the mean (±SD) of experiments performed in biological triplicate."}, "MCF7 cells": {"tested_on": "MCF7 cells", "test": "BrdU ssDNA / propidium iodide flow cytometry", "assay_type": "cell-based", "details": "PNR-7-48 0.5 μM + Mirin 100 μM, 48 hours", "description": "MCF7 cells were plated in 60 mm dishes at a confluency of 300,000 cells per dish and incubated overnight. Cells were treated the next day with BrdU (10 μM). The compounds were diluted in DMSO and added to the media at a final concentration of PNR-7-48 (0.5 μM) and Mirin (100 μM). The final concentration of DMSO was 0.1% (v/v). After 48 hours of treatment, media was removed and cells were washed in 1×PBS and trypsinized. Cells were then resuspended in media and centrifuged at 1500 rpm (calculate relative centrifugal force, RCF) for 5 minutes. The supernatant was removed, and again cells were washed and centrifuged. The supernatant was discarded and cells were resuspended in ice-cold 70% (v/v) ethanol prepared in 1×PBS while being vortexed. After overnight fixing at 4° C., cells were vortexed and centrifuged at 3000 rpm (RCF) for 10 minutes. Ethanol was removed leaving residual amounts for cell resuspension by vortexing. Fixed cells were stained with fluorescent anti-BrdU antibodies (FITC mouse anti-BrdU kit; 556028; BD) without prior acid treatment to detect only ssDNA. To confirm that the experimental cells had incorporated BrdU, aliquots of all nuclei were also denatured using HCL and then neutralized with sodium borate before staining with the anti-BrdU antibody. […] Samples were analyzed using the BD FACSCalibur Flow Cytometer in the UAMS Flow Cytometry Core. […]"}}, "note": "pIC50: −log10 of the molar value. Read-outs that look alike come from different tables or passages of the source."}
{"compound": "Cl.[H]/N=C(\\N)NN=Cc1cn(C(=O)c2cccc3ccccc23)c2ccc(Cl)cc12", "note": "[IAG-10, (E)-2-((1-(1-naphthoyl)-5-chloro-1H-indol-3-y1)methylene)hydrazine-1-carboximidamide hydrochloride]", "values": [{"measurement": "polymerase activity relative to DMSO control", "setting": "hpol β", "result": "only hpol κ activity was inhibited"}, {"measurement": "pIC50", "setting": "hpol η; 2 nM DNA", "result": 4.65}, {"measurement": "pIC50", "setting": "hpol η; 50 nM DNA", "result": 4.84}, {"measurement": "Michaelis constant, hpol η", "setting": "hpol η; steady-state kinetics with increasing inhibitor concentration", "result": "linear increase"}, {"measurement": "turnover number (kcat), hpol η", "setting": "hpol η; steady-state kinetics with varying inhibitor concentration", "result": "no measurable change"}, {"measurement": "polymerase activity relative to DMSO control", "setting": "Tb pol I", "result": "only hpol κ activity was inhibited"}, {"measurement": "glioma spheroid growth rate", "setting": "T98G spheroids", "result": "inhibits glioma spheroid growth rate on its own and also enhances the effects of TMZ"}, {"measurement": "mutation frequency for control or MMS-damaged DNA", "setting": "[1]", "result": "did not alter the mutation frequency"}, {"measurement": "cell death (sub-G1 cells)", "setting": "MCF7 cells", "result": "increases"}, {"measurement": "ssDNA gap formation (BrdU+ cells)", "setting": "MCF7 cells", "result": "increases"}]}
